Data: PubChem BioAssay AID250 (DTP/NCI, 2004)
Where “and” joins values, the source holds several entries; their conditions need not be identical. Equal values may be shown once. Inconclusive results and toxic doses are left out.

Test system: BDF1 mice, L1210 leukemia sc, survival T/C
Experiment: NCI In Vivo Anticancer Drug Screen. Data for tumor model L1210 Leukemia (subcutaneous) in B6D2F1 (BDF1) mice
Details: endpoint: median survival time, higher = longer survival
In short: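 Expressed as T/C: measurement in compound-treated, tumor-bearing mice relative to vehicle-treated control mice, based on survival or tumor size.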

Q: For N=c1ccn2c(n1)OC1C(O)C(CO)OC12 (stereo not given), which T/C (dose: 9.38 mg/kg/injection, schedule: Q03HX024 (sc), vehicle: water) is on record?
A: 190 % of control

Q: And the T/C (dose: 18.75 mg/kg/injection, schedule: Q03HX024 (sc), vehicle: water)?
A: 200 % of control

Q: And the T/C (dose: 25.0 mg/kg/injection, schedule: Q01DX009 (sc), vehicle: water)?
A: 203 % of control and 170 % of control

Q: What about the T/C (dose: 25.0 mg/kg/injection, schedule: Q## X009 (sc), vehicle: water) of the same compound?
A: 203 % of control and 172 % of control

Q: What about the T/C (dose: 37.5 mg/kg/injection, schedule: Q01DX008 (sc), vehicle: water) of the same compound?
A: 227 % of control and 228 % of control

Q: What about the T/C (dose: 37.5 mg/kg/injection, schedule: Q01DX009 (sc), vehicle: water) of the same compound?
A: 180 % of control

Q: And the T/C (dose: 37.5 mg/kg/injection, schedule: Q03HX024 (sc), vehicle: water)?
A: 205 % of control

Q: What about the T/C (dose: 50.0 mg/kg/injection, schedule: Q01DX009 (sc), vehicle: water) of the same compound?
A: 184 % of control [middle of 4 runs]

Q: And the T/C (dose: 50.0 mg/kg/injection, schedule: Q## X009 (sc), vehicle: water)?
A: 214 % of control and 188 % of control

Q: What about the T/C (dose: 65.0 mg/kg/injection, schedule: Q01DX009 (sc), vehicle: water) of the same compound?
A: 191 % of control

Q: What about the T/C (dose: 75.0 mg/kg/injection, schedule: Q01DX008 (sc), vehicle: water) of the same compound?
A: 228 % of control and 233 % of control

Q: What about the T/C (dose: 75.0 mg/kg/injection, schedule: Q01DX009 (oral), vehicle: water) of the same compound?
A: 180 % of control

Q: What about the T/C (dose: 75.0 mg/kg/injection, schedule: Q01DX009 (sc), vehicle: water) of the same compound?
A: 203 % of control and 190 % of control

Q: And the T/C (dose: 75.0 mg/kg/injection, schedule: Q03HX024 (sc), vehicle: water)?
A: 220 % of control

Q: And the T/C (dose: 75.0 mg/kg/injection, schedule: Q## X009 (sc), vehicle: water)?
A: 203 % of control

Q: What about the T/C (dose: 100.0 mg/kg/injection, schedule: Q01DX009 (ip), vehicle: saline) of the same compound?
A: 168 % of control and 172 % of control

Q: And the T/C (dose: 100.0 mg/kg/injection, schedule: Q01DX009 (ip), vehicle: water)?
A: 205 % of control

Q: What about the T/C (dose: 100.0 mg/kg/injection, schedule: Q01DX009 (sc), vehicle: water) of the same compound?
A: 206 % of control [middle of 4 runs]

Q: What about the T/C (dose: 100.0 mg/kg/injection, schedule: Q## X009 (sc), vehicle: water) of the same compound?
A: 222 % of control and 211 % of control

Q: And the T/C (dose: 108.0 mg/kg/injection, schedule: Q01DX009 (sc), vehicle: water)?
A: 183 % of control

Q: And the T/C (dose: 108.0 mg/kg/injection, schedule: Q01DX014 (sc), vehicle: water)?
A: 210 % of control

Q: And the T/C (dose: 108.0 mg/kg/injection, schedule: Q01DX015 (sc), vehicle: water)?
A: 194 % of control and 200 % of control

Q: And the T/C (dose: 150.0 mg/kg/injection, schedule: Q01DX008 (sc), vehicle: water)?
A: 247 % of control and 250 % of control

Q: What about the T/C (dose: 150.0 mg/kg/injection, schedule: Q01DX009 (oral), vehicle: water) of the same compound?
A: 175 % of control

Q: And the T/C (dose: 150.0 mg/kg/injection, schedule: Q01DX009 (sc), vehicle: water)?
A: 233 % of control and 200 % of control

Q: And the T/C (dose: 150.0 mg/kg/injection, schedule: Q03HX008 (sc), vehicle: water)?
A: 150 % of control

Q: And the T/C (dose: 150.0 mg/kg/injection, schedule: Q03HX024 (sc), vehicle: water)?
A: 210 % of control

Q: And the T/C (dose: 150.0 mg/kg/injection, schedule: Q## X009 (sc), vehicle: water)?
A: 233 % of control

Q: And the T/C (dose: 180.0 mg/kg/injection, schedule: Q01DX009 (sc), vehicle: water)?
A: 207 % of control

Q: And the T/C (dose: 180.0 mg/kg/injection, schedule: Q01DX014 (sc), vehicle: water)?
A: 253 % of control

Q: What about the T/C (dose: 180.0 mg/kg/injection, schedule: Q01DX015 (sc), vehicle: water) of the same compound?
A: 222 % of control and 223 % of control

Q: What about the T/C (dose: 200.0 mg/kg/injection, schedule: Q01DX009 (ip), vehicle: saline) of the same compound?
A: 180 % of control and 190 % of control

Q: What about the T/C (dose: 200.0 mg/kg/injection, schedule: Q01DX009 (ip), vehicle: water) of the same compound?
A: 227 % of control

Q: And the T/C (dose: 200.0 mg/kg/injection, schedule: Q01DX009 (sc), vehicle: water)?
A: 236 % of control [middle of 4 runs]

Q: What about the T/C (dose: 200.0 mg/kg/injection, schedule: Q## X009 (sc), vehicle: water) of the same compound?
A: 247 % of control and 238 % of control

Q: And the T/C (dose: 300.0 mg/kg/injection, schedule: Q01DX001 (sc), vehicle: water)?
A: 120 % of control

Q: What about the T/C (dose: 300.0 mg/kg/injection, schedule: Q01DX008 (sc), vehicle: water) of the same compound?
A: 235 % of control and 238 % of control

Q: What about the T/C (dose: 300.0 mg/kg/injection, schedule: Q01DX009 (ip), vehicle: saline) of the same compound?
A: 202 % of control and 209 % of control

Q: And the T/C (dose: 300.0 mg/kg/injection, schedule: Q01DX009 (oral), vehicle: water)?
A: 195 % of control

Q: What about the T/C (dose: 300.0 mg/kg/injection, schedule: Q01DX009 (sc), vehicle: water) of the same compound?
A: 180 % of control and 183 % of control (2×)

Q: What about the T/C (dose: 300.0 mg/kg/injection, schedule: Q01DX014 (sc), vehicle: water) of the same compound?
A: 239 % of control

Q: And the T/C (dose: 300.0 mg/kg/injection, schedule: Q01DX015 (sc), vehicle: water)?
A: 227 % of control and 231 % of control

Q: What about the T/C (dose: 300.0 mg/kg/injection, schedule: Q03HX008 (sc), vehicle: water) of the same compound?
A: 155 % of control

Q: And the T/C (dose: 300.0 mg/kg/injection, schedule: Q04DX003 (sc), vehicle: water)?
A: 150 % of control

Q: And the T/C (dose: 300.0 mg/kg/injection, schedule: Q## X009 (sc), vehicle: water)?
A: 218 % of control

Q: What about the T/C (dose: 400.0 mg/kg/injection, schedule: Q01DX009 (ip), vehicle: water) of the same compound?
A: 177 % of control

Q: And the T/C (dose: 400.0 mg/kg/injection, schedule: Q01DX009 (sc), vehicle: water)?
A: 200 % of control and 209 % of control and 304 % of control

Q: And the T/C (dose: 500.0 mg/kg/injection, schedule: Q01DX014 (sc), vehicle: water)?
A: 163 % of control

Q: What about the T/C (dose: 500.0 mg/kg/injection, schedule: Q01DX015 (sc), vehicle: water) of the same compound?
A: 211 % of control and 233 % of control

Q: What about the T/C (dose: 600.0 mg/kg/injection, schedule: Q01DX008 (sc), vehicle: water) of the same compound?
A: 172 % of control and 180 % of control

Q: What about the T/C (dose: 600.0 mg/kg/injection, schedule: Q01DX009 (oral), vehicle: water) of the same compound?
A: 155 % of control

Q: What about the T/C (dose: 600.0 mg/kg/injection, schedule: Q04DX003 (sc), vehicle: water) of the same compound?
A: 170 % of control

Q: What about the T/C (dose: 800.0 mg/kg/injection, schedule: Q01DX009 (ip), vehicle: water) of the same compound?
A: 122 % of control

Q: And the T/C (dose: 800.0 mg/kg/injection, schedule: Q01DX009 (sc), vehicle: water)?
A: 88 % of control

Q: And the T/C (dose: 800.0 mg/kg/injection, schedule: Q## X009 (sc), vehicle: water)?
A: 88 % of control

Q: And the T/C (dose: 1200.0 mg/kg/injection, schedule: Q01DX009 (oral), vehicle: water)?
A: 100 % of control

Q: What about the T/C (dose: 1200.0 mg/kg/injection, schedule: Q04DX003 (sc), vehicle: water) of the same compound?
A: 195 % of control

Q: And the T/C (dose: 1600.0 mg/kg/injection, schedule: Q01DX001 (sc), vehicle: water)?
A: 150 % of control and 157 % of control

Q: What about the T/C (dose: 2400.0 mg/kg/injection, schedule: Q01DX001 (sc), vehicle: water) of the same compound?
A: 150 % of control

Q: What about the T/C (dose: 2400.0 mg/kg/injection, schedule: Q03HX008 (sc), vehicle: water) of the same compound?
A: 90 % of control
